Experimental data from patent US20250171437A1 (Agios Pharmaceuticals,Inc., priority 2022, published 2025).

target: T1, human PAH with the R408W mutation (A375 R408W cells) (Homo sapiens, UniProt P00439, R408W); experiment: Cell Based Phenylalanine Flux Assay; settings: A375 R408W cells; 24 hrs with compound, then 20 μM sepiapterin and 800 μM 13C9,15N-Phenylalanine for 4 hours; 13C-Tyrosine by LC-MS; average where tested multiple times
T1 construct: expressed in transfected cells
T1 sequence (P00439 1-452 R408W): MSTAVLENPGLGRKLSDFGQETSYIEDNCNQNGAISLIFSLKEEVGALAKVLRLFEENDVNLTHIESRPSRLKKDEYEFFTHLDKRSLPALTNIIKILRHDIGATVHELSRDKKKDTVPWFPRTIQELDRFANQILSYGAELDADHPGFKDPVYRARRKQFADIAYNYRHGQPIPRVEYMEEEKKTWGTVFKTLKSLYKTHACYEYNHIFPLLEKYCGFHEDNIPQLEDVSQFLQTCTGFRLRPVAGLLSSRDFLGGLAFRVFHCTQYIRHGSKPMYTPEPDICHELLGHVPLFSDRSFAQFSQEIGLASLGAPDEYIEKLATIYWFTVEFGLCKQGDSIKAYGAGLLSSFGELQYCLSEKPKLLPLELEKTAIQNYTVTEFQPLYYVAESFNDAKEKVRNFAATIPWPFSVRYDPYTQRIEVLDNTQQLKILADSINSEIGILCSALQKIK
Procedure, shortened: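 LC-MS quantitation of 13C-tyrosine in media gave AC50 values. Stable A375 R408W PAH cells were preincubated 24 h with compound, then fed 800 μM labelled Phe plus 20 μM sepiapterin for 4 h. Dose curves were 10-point, tested in duplicate, averaged over repeat runs.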

| AC50 [nM] | Compound |
| --- | --- |
| ≤ 500 | CC(C)(CO)c1nc(C(F)F)c(C(=O)N2CCc3[nH]cnc3[C@H]2c2nc3cc(F)ccc3o2)o1 [Example 824, (S)-(4-(difluoromethyl)-2-(1-hydroxy-2-methylpropan-2-yl)oxazol-5-yl)(4-(5-fluorobenzo[d]oxazol-2-yl)-6,7-dihydro-1H-imidazo[4,5-c]pyridin-5(4H)-yl)methanone] |
| 1000 to 5000 | O=C(c1nnc(-c2ccccn2)o1)N1CCc2[nH]cnc2[C@@H]1c1nc2ccc(F)cc2o1 [Example 304, (R)-(4-(6-fluorobenzo[d]oxazol-2-yl)-6,7-dihydro-1H-imidazo[4,5-c]pyridin-5(4H)-yl)(5-(pyridin-2-yl)-1,3,4-oxadiazol-2-yl)methanone] |
| ≤ 500 | O=C(c1oc(-c2ccncn2)nc1C(F)F)N1CCc2[nH]cnc2[C@@H]1c1nc2cccc(F)c2o1 [Example 774, (R)-(4-(difluoromethyl)-2-(pyrimidin-4-yl)oxazol-5-yl)(4-(7-fluorobenzo[d]oxazol-2-yl)-6,7-dihydro-1H-imidazo[4,5-c]pyridin-5(4H)-yl)methanone] |
| ≥ 5000 | (R)-(4-(deuterium)-2-(2-hydroxypropan-2-yl)oxazol-5-yl)(4-fluoro-4-(5-fluorobenzo[d]oxazol-2-yl)-6,7-dihydro-1H-imidazo[4,5-c]pyridin-5(4H)-yl)methanone [Example 906] |
| ≤ 500 | Cc1ncoc1C(=O)N1CCc2[nH]cnc2[C@H]1c1nc2cccc(F)c2o1 [Example 569, (S)-(4-(7-fluorobenzo[d]oxazol-2-yl)-6,7-dihydro-1H-imidazo[4,5-c]pyridin-5(4H)-yl)(4-methyloxazol-5-yl)methanone] |
| 500 to 1000 | O=C(c1nnc(-c2ccccn2)o1)N1CCc2[nH]cnc2[C@@H]1c1nc2cccc(C(F)(F)F)c2o1 [Example 837, (R)-(5-(pyridin-2-yl)-1,3,4-oxadiazol-2-yl)(4-(7-(trifluoromethyl)benzo[d]oxazol-2-yl)-6,7-dihydro-1H-imidazo[4,5-c]pyridin-5(4H)-yl)methanone] |
| 500 to 1000 | COc1ccc2oc([C@@H]3c4nc[nH]c4CCN3C(=O)c3oc(C(C)(C)O)nc3C(F)F)nc2c1 [Example 339, (S)-(4-(difluoromethyl)-2-(2-hydroxypropan-2-yl)oxazol-5-yl)(4-(5-methoxybenzo[d]oxazol-2-yl)-6,7-dihydro-1H-imidazo[4,5-c]pyridin-5(4H)-yl)methanone] |
| 1000 to 5000 | O=C(c1cnn2cc(N3CCC4(CC3)CC4)ccc12)N1CCc2[nH]cnc2[C@@H]1c1nc2cccc(F)c2o1 [Example 396, (R)-(6-(6-azaspiro[2.5]octan-6-yl)pyrazolo[1,5-a]pyridin-3-yl)(4-(7-fluorobenzo[d]oxazol-2-yl)-6,7-dihydro-1H-imidazo[4,5-c]pyridin-5(4H)-yl)methanone] |
| 500 to 1000 | CC(C)(O)c1nc(C(F)F)c(C(=O)N2CCc3[nH]cnc3[C@@H]2c2nc3cc(Br)ccc3o2)o1 [Example 416, [(4R)-4-(5-bromo-1,3-benzoxazol-2-yl)-1,4,6,7-tetrahydroimidazo[4,5-c]pyridin-5-yl]-[4-(difluoromethyl)-2-(1-hydroxy-1-methyl-ethyl)oxazol-5-yl]methanone] |
| 500 to 1000 | CC(C)(O)c1nc(C(F)F)c(C(=O)N2CCc3[nH]cnc3[C@@H]2c2nc3c(C(F)(F)F)cccc3o2)o1 [Example 464, (R)-(4-(difluoromethyl)-2-(2-hydroxypropan-2-yl)oxazol-5-yl)(4-(4-(trifluoromethyl)benzo[d]oxazol-2-yl)-6,7-dihydro-1H-imidazo[4,5-c]pyridin-5(4H)-yl)methanone] |
| ≤ 500 | Cc1ccc2oc([C@@H]3c4nc[nH]c4CCN3C(=O)c3nnc(-c4ccn(C(F)F)n4)o3)nc2c1 [Example 695, (S)-(5-(1-(difluoromethyl)-1H-pyrazol-3-yl)-1,3,4-oxadiazol-2-yl)(4-(5-methylbenzo[d]oxazol-2-yl)-6,7-dihydro-1H-imidazo[4,5-c]pyridin-5(4H)-yl)methanone] |
| 1000 to 5000 | Cc1ccc2nc([C@H]3c4nc[nH]c4CCN3C(=O)c3oc(C(C)(C)O)nc3Br)oc2c1 [Example 440, (R)-(4-bromo-2-(2-hydroxypropan-2-yl)oxazol-5-yl)(4-(6-methylbenzo[d]oxazol-2-yl)-6,7-dihydro-1H-imidazo[4,5-c]pyridin-5(4H)-yl)methanone] |
| ≤ 500 | O=C(c1ocnc1C(F)F)N1CCc2[nH]cnc2[C@H]1c1nc2cc(Cl)ccc2o1 [Example 378, (S)-(4-(5-chlorobenzo[d]oxazol-2-yl)-6,7-dihydro-1H-imidazo[4,5-c]pyridin-5(4H)-yl)(4-(difluoromethyl)oxazol-5-yl)methanone] |
| 1000 to 5000 | O=C(c1ocnc1CF)N1CCc2[nH]cnc2[C@@H]1c1nc2cc(F)ccc2o1 [Example 180, (R)-(4-(5-fluorobenzo[d]oxazol-2-yl)-6,7-dihydro-1H-imidazo[4,5-c]pyridin-5(4H)-yl)(4-(fluoromethyl)oxazol-5-yl)methanone] |
| 1000 to 5000 | O=C(c1cnn2cc(N3CCC(F)CC3)ccc12)N1CCc2[nH]cnc2[C@@H]1c1nc2cccc(F)c2o1 [Example 370, (R)-(4-(7-fluorobenzo[d]oxazol-2-yl)-6,7-dihydro-1H-imidazo[4,5-c]pyridin-5(4H)-yl)(6-(4-fluoropiperidin-1-yl)pyrazolo[1,5-a]pyridin-3-yl)methanone] |
| ≤ 500 | O=C(c1cnn2cc(F)c(Cl)cc12)N1CCc2[nH]cnc2[C@H]1c1nc2cc(F)ccc2o1 [Example 219, (S)-(5-chloro-6-fluoropyrazolo[1,5-a]pyridin-3-yl)(4-(5-fluorobenzo[d]oxazol-2-yl)-6,7-dihydro-1H-imidazo[4,5-c]pyridin-5(4H)-yl)methanone] |
| 1000 to 5000 | Cn1nc(Cl)nc1C(=O)N1CCc2[nH]cnc2[C@H]1c1nc2ccc(F)cc2o1 [Example 343, (S)-(3-chloro-1-methyl-1H-1,2,4-triazol-5-yl)(4-(6-fluorobenzo[d]oxazol-2-yl)-6,7-dihydro-1H-imidazo[4,5-c]pyridin-5(4H)-yl)methanone] |
| 1000 to 5000 | Cn1ccc(-c2nnc(C(=O)N3CCc4[nH]cnc4[C@@H]3c3nc4ccc(F)cc4o3)o2)n1 [Example 322, (R)-(4-(6-fluorobenzo[d]oxazol-2-yl)-6,7-dihydro-1H-imidazo[4,5-c]pyridin-5(4H)-yl)(5-(1-methyl-1H-pyrazol-3-yl)-1,3,4-oxadiazol-2-yl)methanone] |
| ≤ 500 | CN1CCN(c2nc(C(F)F)c(C(=O)N3CCc4[nH]cnc4[C@H]3c3nc4cccc(F)c4o3)o2)CC1 [Example 617, (S)-(4-(difluoromethyl)-2-(4-methylpiperazin-1-yl)oxazol-5-yl)(4-(7-fluorobenzo[d]oxazol-2-yl)-6,7-dihydro-1H-imidazo[4,5-c]pyridin-5(4H)-yl)methanone] |
| 500 to 1000 | Cn1cnc(-c2nc(C(F)(F)F)c(C(=O)N3CCc4[nH]cnc4[C@H]3c3nc4cc(F)ccc4o3)o2)c1 [Example 790, (S)-(4-(5-fluorobenzo[d]oxazol-2-yl)-6,7-dihydro-1H-imidazo[4,5-c]pyridin-5(4H)-yl)(2-(1-methyl-1H-imidazol-4-yl)-4-(trifluoromethyl)oxazol-5-yl)methanone] |
| 1000 to 5000 | O=C(c1ccnn1C(F)F)N1CCc2[nH]cnc2[C@@H]1c1nc2ccc(F)cc2o1 [Example 190, (R)-(1-(difluoromethyl)-1H-pyrazol-5-yl)(4-(6-fluorobenzo[d]oxazol-2-yl)-6,7-dihydro-1H-imidazo[4,5-c]pyridin-5(4H)-yl)methanone] |
| 1000 to 5000 | Cc1nn(C)cc1-c1nnc(C(=O)N2CCc3[nH]cnc3[C@@H]2c2nc3cc(F)ccc3o2)o1 [Example 882, (R)-(5-(1,3-dimethyl-1H-pyrazol-4-yl)-1,3,4-oxadiazol-2-yl)(4-(5-fluorobenzo[d]oxazol-2-yl)-6,7-dihydro-1H-imidazo[4,5-c]pyridin-5(4H)-yl)methanone] |
| ≥ 5000 | O=C(CCc1nccs1)N1CCc2[nH]cnc2[C@@H]1c1nc2cccc(F)c2o1 [Example 386, 1-[(4R)-4-(7-fluoro-1,3-benzoxazol-2-yl)-1,4,6,7-tetrahydroimidazo[4,5-c]pyridin-5-yl]-3-thiazol-2-yl-propan-1-one] |

same assay, conditions: A375 cells expressing R408W PAH; 24 hrs with compound, then 20 μM sepiapterin and 800 μM 13C9,15N-Phenylalanine for 4 hours; 13C-Tyrosine by LC-MS; average where tested multiple times

| AC50 [nM] | Compound |
| --- | --- |
| 1000 to 5000 | Cn1cncc1-c1nnc(C(=O)N2CCc3[nH]cnc3C2c2nc3cc(F)ccc3o2)o1 (centres unmarked) |
| 1000 to 5000 | O=C(c1cnco1)N1CCc2[nH]cnc2C1c1nc2ccc(F)cc2o1 (centres unmarked) |
| ≥ 5000 | N#Cc1ccc2c(C(=O)N3CCc4[nH]cnc4C3c3nc4cc(F)ccc4o3)cnn2c1 (centres unmarked) |
| ≥ 5000 | CN(C)CCCc1ccc2c(C(=O)N3CCc4[nH]cnc4C3c3nc4cc(F)ccc4o3)cnn2c1 (centres unmarked) |
| 1000 to 5000 | Cn1nc(C(F)(F)F)nc1C(=O)N1CCc2[nH]cnc2C1c1nc2ccc(F)cc2o1 (centres unmarked) |
| 1000 to 5000 | Cn1nc(C(C)(C)O)nc1C(=O)N1CCc2[nH]cnc2C1c1nc2cccc(F)c2o1 (centres unmarked) |
| ≥ 5000 | Cc1ccc2oc(C3c4nc[nH]c4CCN3C(=O)c3cnco3)nc2c1 (centres unmarked) |
| 1000 to 5000 | Cn1cc(-c2nnc(C(=O)N3CCc4[nH]cnc4C3c3nc4ccc(F)cc4o3)o2)cn1 (centres unmarked) |
| 1000 to 5000 | O=C(c1ccn(-c2ccccn2)n1)N1CCc2[nH]cnc2C1c1nc2ccccc2o1 (centres unmarked) |
